Measured values taken from PubChem BioAssay AID330 (DTP/NCI, 2004).
Where “and” joins values, the source holds several entries; their conditions need not be identical. Equal entries are not always repeated. Toxic doses and inconclusive results are not listed.

Test system: P388 leukemia ip, CD2F1 mice, survival T/C
Experiment: NCI In Vivo Anticancer Drug Screen. Data for tumor model P388 Leukemia (intraperitoneal) in CD2F1 (CDF1) mice
Conditions: endpoint: median survival time, higher = longer survival
Procedure, shortened: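 Mice carrying the transplanted tumor received test compound or vehicle. Survival was recorded in each group, and the value is the treated-group measurement divided by that of the vehicle-treated control group.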

[1] = dose: 100.0 mg/kg/injection, schedule: Q04DX002 (ip), vehicle: saline
[2] = dose: 200.0 mg/kg/injection, schedule: Q04DX002 (ip), vehicle: saline
[3] = dose: 400.0 mg/kg/injection, schedule: Q04DX002 (ip), vehicle: saline
[4] = dose: 12.5 mg/kg/injection, schedule: Q01DX009 (ip), vehicle: saline with Tween-80
[5] = dose: 25.0 mg/kg/injection, schedule: Q01DX009 (ip), vehicle: saline with Tween-80
[6] = dose: 25.0 mg/kg/injection, schedule: Q04DX003 (ip), vehicle: saline with Tween-80
[7] = dose: 50.0 mg/kg/injection, schedule: Q01DX009 (ip), vehicle: saline with Tween-80
[8] = dose: 50.0 mg/kg/injection, schedule: Q04DX003 (ip), vehicle: saline with Tween-80
[9] = dose: 100.0 mg/kg/injection, schedule: Q04DX003 (ip), vehicle: saline with Tween-80
[10] = dose: 100.0 mg/kg/injection, schedule: Q04DX003 (ip), vehicle: saline
[11] = dose: 100.0 mg/kg/injection, schedule: Q01DX009 (ip), vehicle: saline with Tween-80
[12] = dose: 200.0 mg/kg/injection, schedule: Q01DX009 (ip), vehicle: saline with Tween-80
[13] = dose: 60.0 mg/kg/injection, schedule: Q01DX005 (ip), vehicle: saline
[14] = dose: 120.0 mg/kg/injection, schedule: Q01DX005 (ip), vehicle: saline
[15] = dose: 240.0 mg/kg/injection, schedule: Q01DX005 (ip), vehicle: saline
[16] = dose: 12.5 mg/kg/injection, schedule: Q01DX005 (ip), vehicle: saline with Tween-80
[17] = dose: 50.0 mg/kg/injection, schedule: Q01DX005 (ip), vehicle: saline with Tween-80
[18] = dose: 60.0 mg/kg/injection, schedule: Q01DX005 (ip), vehicle: saline with Tween-80
[19] = dose: 120.0 mg/kg/injection, schedule: Q01DX005 (ip), vehicle: saline with Tween-80
[20] = dose: 240.0 mg/kg/injection, schedule: Q01DX005 (ip), vehicle: saline with Tween-80
[21] = dose: 50.0 mg/kg/injection, schedule: Q01DX005 (ip), vehicle: Klucel (hydroxypropylcellulose) (HPC)

Structure (SMILES): Cc1nc2cc(N(C)C)ccc2c(Cl)c1C(N)=O
- T/C (dose: 15.0 mg/kg/injection, schedule: Q01DX005 (ip), vehicle: Klucel (hydroxypropylcellulose) (HPC)): 100 % of control
- T/C (dose: 30.0 mg/kg/injection, schedule: Q01DX005 (ip), vehicle: Klucel (hydroxypropylcellulose) (HPC)): 99 % of control
- T/C (dose: 60.0 mg/kg/injection, schedule: Q01DX005 (ip), vehicle: Klucel (hydroxypropylcellulose) (HPC)): 100 % of control and 96 % of control

Structure (SMILES): O=C1NC(=O)C2(CC3CCCC(C2)N3)N1 (stereo unspecified)
- T/C (dose: 100.0 mg/kg/injection, schedule: Q04DX003 (ip), vehicle: water): 101 % of control
- T/C (dose: 200.0 mg/kg/injection, schedule: Q04DX003 (ip), vehicle: water): 99 % of control
- T/C (dose: 400.0 mg/kg/injection, schedule: Q04DX003 (ip), vehicle: water): 103 % of control

Structure (SMILES): COCCOCCOCCOCCn1cc(F)c(=O)[nH]c1=O
- T/C (dose: 50.0 mg/kg/injection, schedule: Q04DX002 (ip), vehicle: saline): 104 % of control
- T/C [1]: 94 % of control
- T/C [2]: 100 % of control
- T/C [3]: 94 % of control

Structure (SMILES): Cc1c[n+]2ccccc2n1C
- T/C (dose: 1.56 mg/kg/injection, schedule: Q01DX009 (ip), vehicle: saline): 98 % of control
- T/C (dose: 3.13 mg/kg/injection, schedule: Q01DX009 (ip), vehicle: saline): 95 % of control
- T/C (dose: 6.25 mg/kg/injection, schedule: Q01DX009 (ip), vehicle: saline): 89 % of control

Structure (SMILES): C[N+](C)(C)CC(C[N+](C)(C)C)C(=O)c1ccccc1
- T/C (dose: 6.25 mg/kg/injection, schedule: Q01DX009 (ip), vehicle: Klucel (hydroxypropylcellulose) (HPC)): 107 % of control
- T/C (dose: 12.5 mg/kg/injection, schedule: Q01DX009 (ip), vehicle: Klucel (hydroxypropylcellulose) (HPC)): 108 % of control

Structure (SMILES): CCc1c(CC(=O)O)c2cc(C)ccc2n1Cc1ccc(Cl)cc1
- T/C [4]: 95 % of control
- T/C [5]: 104 % of control
- T/C [6]: 104 % of control and 95 % of control and 91 % of control
- T/C [7]: 109 % of control
- T/C [8]: 108 % of control and 91 % of control
- T/C [9]: 90 % of control and 108 % of control and 92 % of control
- T/C [10]: 96 % of control
- T/C (dose: 200.0 mg/kg/injection, schedule: Q04DX003 (ip), vehicle: saline with Tween-80): 90 % of control

Structure (SMILES): Clc1ccc(CSSCc2ccc(Cl)cc2)cc1
- T/C (dose: 12.5 mg/kg/injection, schedule: Q04DX003 (ip), vehicle: saline with Tween-80): 100 % of control
- T/C [6]: 100 % of control
- T/C [8]: 100 % of control
- T/C [9]: 107 % of control

Structure (SMILES): COc1cc(-c2c(C#N)c(OC)[nH]c(=O)c2C#N)cc(OC)c1OC
- T/C [4]: 105 % of control
- T/C [5]: 102 % of control
- T/C [7]: 102 % of control and 105 % of control
- T/C [11]: 96 % of control
- T/C [12]: 95 % of control

Structure (SMILES): Cc1cnc2c([N+](=O)[O-])cc(C)c(C)c2c1
- T/C [7]: 99 % of control
- T/C [11]: 99 % of control
- T/C [12]: 92 % of control

Structure (SMILES): N#Cc1nc(CC(=O)c2ccncc2)c(CC(=O)c2ccncc2)nc1C#N
- T/C [13]: 109 % of control
- T/C [14]: 106 % of control
- T/C [15]: 97 % of control

Structure (SMILES): CC(C)CCC1=CC(=O)C(CCC(C)C)=CC1=O
- T/C (dose: 3.12 mg/kg/injection, schedule: Q01DX009 (ip), vehicle: saline with Tween-80): 104 % of control
- T/C (dose: 6.25 mg/kg/injection, schedule: Q01DX009 (ip), vehicle: saline with Tween-80): 104 % of control
- T/C [4]: 106 % of control
- T/C [5]: 101 % of control

Structure (SMILES): Cn1c(=O)c2snnc2n(C)c1=O
- T/C (dose: 100.0 mg/kg/injection, schedule: Q04DX003 (ip), vehicle: Klucel (hydroxypropylcellulose) (HPC)): 107 % of control
- T/C (dose: 200.0 mg/kg/injection, schedule: Q04DX003 (ip), vehicle: Klucel (hydroxypropylcellulose) (HPC)): 104 % of control

Structure (SMILES): C/C(=N\NC(=S)N1CC2CCC(CC2)C1)c1nccs1
- T/C [16]: 124 % of control
- T/C [17]: 154 % of control

Structure (SMILES): CS(=O)CCCN=C=S (stereo unspecified)
- T/C (dose: 18.75 mg/kg/injection, schedule: Q01DX009 (ip), vehicle: saline with Tween-80): 111 % of control
- T/C (dose: 37.5 mg/kg/injection, schedule: Q01DX009 (ip), vehicle: saline with Tween-80): 110 % of control
- T/C (dose: 75.0 mg/kg/injection, schedule: Q01DX009 (ip), vehicle: saline with Tween-80): 111 % of control

Structure (SMILES): CC(C)(C)N=C(CCNC1CCCCC1)Nc1cccc(C(F)(F)F)c1
- T/C (dose: 25.0 mg/kg/injection, schedule: Q01DX001 (ip), vehicle: saline): 98 % of control
- T/C (dose: 50.0 mg/kg/injection, schedule: Q01DX001 (ip), vehicle: saline): 101 % of control
- T/C (dose: 100.0 mg/kg/injection, schedule: Q01DX001 (ip), vehicle: saline with Tween-80): 101 % of control
- T/C (dose: 100.0 mg/kg/injection, schedule: Q01DX001 (ip), vehicle: saline): 113 % of control

Structure (SMILES): c1ccc(OCc2nn3c(-c4ccccc4)nnc3s2)cc1
- T/C [18]: 107 % of control
- T/C [19]: 94 % of control
- T/C [20]: 93 % of control

Structure (SMILES): COc1ccc2c(c1)nc(/C(C(=O)C(=O)c1ccccc1)=C(\O)c1ccccc1)c(C)[n+]2[O-]
- T/C [13]: 103 % of control
- T/C [14]: 104 % of control
- T/C [15]: 100 % of control

Structure (SMILES): Cc1[nH]n(-c2ccccc2)c(=O)c1N=Nc1cccc(C(F)(F)F)c1
- T/C [1]: 92 % of control
- T/C [2]: 99 % of control
- T/C [3]: 100 % of control

Structure (SMILES): OCCCN(CCCO)CCN(CCCO)CCCO
- T/C [10]: 97 % of control
- T/C (dose: 200.0 mg/kg/injection, schedule: Q04DX003 (ip), vehicle: saline): 97 % of control
- T/C (dose: 400.0 mg/kg/injection, schedule: Q04DX003 (ip), vehicle: saline): 87 % of control

Structure (SMILES): N=C(N)SCc1ccc2nsnc2c1
- T/C [16]: 98 % of control
- T/C (dose: 25.0 mg/kg/injection, schedule: Q01DX005 (ip), vehicle: saline with Tween-80): 100 % of control
- T/C [17]: 98 % of control and 102 % of control

Structure (SMILES): COc1cccc([B-]23OCC[N+]2(CNC(=O)C2=C(O)C4(O)C(=O)C5=C(O)c6c(O)cccc6C(C)(O)C5CC4C(N(C)C)C2=O)CCO3)c1 (stereo unspecified)
- T/C [21]: 110 % of control
- T/C (dose: 100.0 mg/kg/injection, schedule: Q01DX005 (ip), vehicle: Klucel (hydroxypropylcellulose) (HPC)): 105 % of control
- T/C (dose: 200.0 mg/kg/injection, schedule: Q01DX005 (ip), vehicle: Klucel (hydroxypropylcellulose) (HPC)): 115 % of control

Structure (SMILES): CCNC(=O)OOC(C)(C)C
- T/C (dose: 50.0 mg/kg/injection, schedule: Q01DX009 (ip), vehicle: saline): 102 % of control
- T/C (dose: 100.0 mg/kg/injection, schedule: Q01DX009 (ip), vehicle: saline): 101 % of control

Structure (SMILES): O=c1oc(-c2ccccc2)nc2c1sc1nc(-c3ccccc3)oc(=O)c12
- T/C (dose: 1.56 mg/kg/injection, schedule: Q01DX005 (ip), vehicle: Klucel (hydroxypropylcellulose) (HPC)): 93 % of control
- T/C (dose: 3.12 mg/kg/injection, schedule: Q01DX005 (ip), vehicle: Klucel (hydroxypropylcellulose) (HPC)): 101 % of control and 91 % of control and 96 % of control
- T/C (dose: 6.25 mg/kg/injection, schedule: Q01DX005 (ip), vehicle: Klucel (hydroxypropylcellulose) (HPC)): 87 % of control and 88 % of control and 89 % of control
- T/C [21]: 88 % of control and 92 % of control

Structure (SMILES): COc1ccc2c([O-])c3[n+](c(OC)c2c1OC)CCc1cc2c(cc1-3)OCO2
- T/C (dose: 50.0 mg/kg/injection, schedule: Q04DX002 (ip), vehicle: saline with Tween-80): 94 % of control
- T/C (dose: 100.0 mg/kg/injection, schedule: Q04DX002 (ip), vehicle: saline with Tween-80): 104 % of control
- T/C (dose: 200.0 mg/kg/injection, schedule: Q04DX002 (ip), vehicle: saline with Tween-80): 103 % of control

Structure (SMILES): O=C(Nc1cccnc1)c1cccc([N+](=O)[O-])c1
- T/C [18]: 100 % of control
- T/C [19]: 98 % of control
- T/C [20]: 97 % of control

Structure (SMILES): O=C1C(Cl)=C(N2CCN(C3=C(Cl)C(=O)c4ccccc4C3=O)CC2)C(=O)c2ccccc21
- T/C (dose: 1.5 mg/kg/injection, schedule: Q01DX009 (ip), vehicle: saline): 100 % of control and 104 % of control
- T/C (dose: 3.0 mg/kg/injection, schedule: Q01DX009 (ip), vehicle: saline): 100 % of control and 107 % of control
- T/C (dose: 6.0 mg/kg/injection, schedule: Q01DX009 (ip), vehicle: saline): 104 % of control and 97 % of control
